From patent US20150141435A1, “2-PYRIDONE ANTIMICROBIAL COMPOSITIONS” (Emergent BioSolutions, priority 2010, published 2015)
Counter-ions that a name gives are not always drawn. Like-named read-outs stand apart in the source and are kept apart here.

What was measured:
Type in all cases: cell-based
[1] = tested on: K. pneumoniae ATCC 33495; test: MIC, CLSI broth microdilution (Table 2); conditions: Klebsiella pneumoniae
[2] = tested on: S. pneumonia ATCC 49619; test: MIC, CLSI broth microdilution (Table 1); conditions: Streptococcus pneumoniae
[3] = tested on: P. aeruginosa ATCC 27853; test: MIC, CLSI broth microdilution (Table 2); conditions: Pseudomonas aeruginosa
[4] = tested on: E. faecalis ATCC 29212; test: MIC, CLSI broth microdilution (Table 1); conditions: Enterococcus faecalis
[5] = tested on: S. aureus ATCC 43300 (MRSA, FQ-S); test: MIC, CLSI broth microdilution (Table 1); conditions: Staphylococcus aureus, read-out: MIC S. aureus ATCC 43300 (MRSA, FQ-S)
[6] = tested on: S. maltophilia ATCC 17677; test: MIC, CLSI broth microdilution (Table 2); conditions: Stenotrophomonas maltophilia
[7] = tested on: E. faecium ATCC 19434; test: MIC, CLSI broth microdilution (Table 1); conditions: Enterococcus faecium
[8] = tested on: S. aureus ATCC 25923; test: MIC, CLSI broth microdilution (Table 1); conditions: Staphylococcus aureus
[9] = tested on: E. coli ATCC 25922; test: MIC, CLSI broth microdilution (Table 2); conditions: Escherichia coli
[10] = tested on: S. aureus BAA-1720 (MRSA, FQ-R); test: MIC, CLSI broth microdilution (Table 1); conditions: Staphylococcus aureus, read-out: MIC S. aureus BAA-1720 (MRSA, FQ-R)
[11] = tested on: A. baumannii ATCC 19606; test: MIC, CLSI broth microdilution (Table 2); conditions: Acinetobacter baumannii
[12] = tested on: H. influenzae ATCC 49247; test: MIC, CLSI broth microdilution (Table 2); conditions: Haemophilus influenzae
[13] = ATCC33495, Gram negative, MHB, 37° C., 16-20 hours, read-out: MIC K. pneumoniae ATCC 33495
[14] = ATCC49619, Gram positive, MHB, 37° C., 16-20 hours, read-out: MIC S. pneumonia ATCC 49619
[15] = ATCC27853, Gram negative, MHB, 37° C., 16-20 hours, read-out: MIC P. aeruginosa ATCC 27853
[16] = ATCC29212, Gram positive, MHB, 37° C., 16-20 hours, read-out: MIC E. faecalis ATCC 29212
[17] = Gram positive, MHB, 37° C., 16-20 hours
[18] = ATCC17677, Gram negative, MHB, 37° C., 16-20 hours, read-out: MIC S. maltophilia ATCC 17677
[19] = ATCC19434, Gram positive, MHB, 37° C., 16-20 hours, read-out: MIC E. faecium ATCC 19434
[20] = ATCC25923, Gram positive, MHB, 37° C., 16-20 hours, read-out: MIC S. aureus ATCC 25923
[21] = ATCC25922, Gram negative, MHB, 37° C., 16-20 hours, read-out: MIC E. coli ATCC 25922
[22] = ATCC19606, Gram negative, MHB, 37° C., 16-20 hours, read-out: MIC A. baumannii B. ATCC 19606
[23] = ATCC49247, Gram negative, MHB, 37° C., 16-20 hours, read-out: MIC H. influenzae ATCC 49247

Row | Compound | MIC [1, 13] [µg/mL] | MIC [2, 14] [µg/mL] | MIC [3, 15] [µg/mL] | MIC [4, 16] [µg/mL] | MIC [5, 17] [µg/mL] | MIC [6, 18] [µg/mL] | MIC [7, 19] [µg/mL] | MIC [8, 20] [µg/mL] | MIC [9, 21] [µg/mL] | MIC [10, 17] [µg/mL] | MIC [11, 22] [µg/mL] | MIC [12, 23] [µg/mL] | other results
1 | Cc1c(-c2ccc(NC(N)=O)cc2)ccn2c(=O)c(C(=O)O)cc(C3CC3)c12 [Example 24 K salt, 1-cyclopropyl-9-methyl-4-oxo-8-(4-ureido-phenyl)-4H-quinolizine-3-carboxylic acid] | 0.5 | 0.032 | 8 | 0.032 | 0.032 | > 8 | 0.5 | 0.032 to 0.064 | 0.125 to 0.25 | > 8 | 4 | 0.016 | –
2 | Cc1c(-c2ccc(N(C)C)cc2)ccn2c(=O)c(C(=O)O)cc(C3CC3)c12 [Example 25 K salt, 1-cyclopropyl-8-(4-(dimethylamino)-phenyl)-9-methyl-4-oxo-4H-quinolizine-3-carboxylic acid] | 1 | 0.25 | > 8 | 0.125 | 0.064 | 1 | 8 | 0.064 | 0.5 | 1 | 1 | 0.064 | –
3 | Cc1c(N2CC[C@H](N)C2)c(F)cn2c(=O)c(C(=O)O)cc(C3CC3)c12 [Example 26 K salt, 8-[(3S)-3-aminopyrrolidin-1-yl]-1-cyclopropyl-7-fluoro-9-methyl-4-oxo-quinolizine-3-carboxylic acid] | 0.016 | 0.064 | 0.125 | 0.125 | 0.032 | 0.064 | 1 | 0.032 | ≤ 0.004 | 1 | 0.064 | ≤ 0.004 | –
4 | Cc1c(N2CC[C@H](N)C2)ccn2c(=O)c(C(=O)O)cc(C3CC3)c12 [Example 27 K salt, 8-[(3S)-3-aminopyrrolidin-1-yl]-1-cyclopropyl-9-methyl-4-oxo-quinolizine-3-carboxylic acid] | 0.25 | 2 | 2 | 4 | 0.5 | 2 | > 8 | 1 | 0.064 to 0.125 | 8 | 2 | 0.125 | –
5 | Cc1c(-c2cc(Cl)c(N)c(Cl)c2)ccn2c(=O)c(C(=O)O)cc(C3CC3)c12 [Example 29 K salt, 1-cyclopropyl-8-(4-amino-3,5-dichloro-phenyl)-9-methyl-4-oxo-4H-quinolizine-3-carboxylic acid] | 0.5 to 1 | 0.064 | 4 | 0.008 to 0.016 | 0.008 | 0.25 | 0.5 | ≤ 0.004 | 0.25 | 0.125 | 0.25 | 0.008 to 0.016 | –
6 | Cc1cc(-c2ccn3c(=O)c(C(=O)O)cc(C4CC4)c3c2C)c(Cl)cc1N [Example 30 K salt, 1-cyclopropyl-8-(4-amino-2-chloro-5-methyl-phenyl)-9-methyl-4-oxo-4H-quinolizine-3-carboxylic acid] | 2 to 4 | 0.25 | > 8 | 0.064 | 0.032 | 4 | 2 | 0.064 | 1 | 1 | 1 to 2 | 0.064 | –
7 | Cc1ccc(-c2ccn3c(=O)c(C(=O)O)cc(C4CC4)c3c2C)cc1 [Example 33 K salt, 1-cyclopropyl-8-(4-methyl-phenyl)-9-methyl-4-oxo-4H-quinolizine-3-carboxylic acid] | 0.5 to 1 | 0.25 | 2 | 0.064 | 0.016 | 0.5 | 0.5 to 1 | 0.016 to 0.032 | 0.25 | 0.5 | 0.5 | 0.016 to 0.032 | –
8 | Cc1c(N2CCNCC2)ccn2c(=O)c(C(=O)O)cc(C3CC3)c12 [Example 34 K salt, 1-cyclopropyl-9-methyl-4-oxo-8-piperazin-1-yl-quinolizine-3-carboxylic acid] | 0.125 to 0.5 | 2 | 1 | 4 | 0.5 | 1 | > 8 | 0.5 | 0.064 | > 8 | 1 | 0.064 | –
9 | Cc1c(N2CCC[C@H](N)C2)ccn2c(=O)c(C(=O)O)cc(C3CC3)c12 [Example 35 K salt, 8-[(3S)-3-amino-1-piperidyl]-1-cyclopropyl-9-methyl-4-oxo-quinolizine-3-carboxylic acid] | 0.125 to 0.5 | 0.032 | 0.5 | 0.125 | 0.032 | 0.125 | 2 | 0.032 | 0.032 | 0.5 | 0.25 | 0.008 to 0.016 | –
10 | Cc1c(-c2ccc(C(N)=O)cc2)ccn2c(=O)c(C(=O)O)cc(C3CC3)c12 [Example 36 K salt, 8-(4-carbamoyl-phenyl)-1-cyclopropyl-9-methyl-4-oxo-4H-quinolizine-3-carboxylic acid] | 0.25 | 0.064 | 8 | 0.032 | 0.016 | 0.125 | 0.5 | 0.016 to 0.032 | 0.125 | 0.5 | 0.5 | 0.008 | –
11 | Cc1c(-c2ccc(C(=O)O)cc2)ccn2c(=O)c(C(=O)O)cc(C3CC3)c12 [Example 37 K salt, 8-(4-carboxy-phenyl)-1-cyclopropyl-9-methyl-4-oxo-4H-quinolizine-3-carboxylic acid] | > 8 | 1 | > 8 | 0.5 | 0.125 | > 8 | > 8 | 2 | > 8 | 8 | > 8 | 0.064 | –
12 | Cc1c(-c2cc(F)c(N)cc2F)c(F)cn2c(=O)c(C(=O)O)cc(C3CC3)c12 [Example 38 K salt, 8-(4-amino-2,5-difluoro-phenyl)-1-cyclopropyl-7-fluoro-9-methyl-4-oxo-4H-quinolizine-3-carboxylic acid] | 1 to 2 | 0.016 | > 8 | 0.008 to 0.016 | ≤ 0.004 | 0.25 | > 8 | ≤ 0.004 | 0.064 to 0.125 | 0.064 | 0.125 | ≤ 0.004 | –
13 | Cc1c(-c2cc(F)c(N)c(F)c2)ccn2c(=O)c(C(=O)O)cc(C3CC3)c12 [Example 39 K salt, 8-(4-amino-3,5-difluoro-phenyl)-1-cyclopropyl-9-methyl-4-oxo-4H-quinolizine-3-carboxylic acid] | – | – | – | – | – | – | – | – | – | – | – | – | MIC ([1]; ATCC33495, read-out: MIC K. pneumoniae ATCC 33495): 0.125 µg/mL; MIC ([2]; ATCC49619, read-out: MIC S. pneumonia ATCC 49619): 0.032 µg/mL; MIC ([3]; ATCC27853, read-out: MIC P. aeruginosa ATCC 27853): 2 µg/mL; MIC ([4]; ATCC29212, read-out: MIC E. faecalis ATCC 29212): 0.016 µg/mL; MIC [5]: ≤ 0.004 µg/mL; MIC ([6]; ATCC17677, read-out: MIC S. maltophilia ATCC 17677): 0.064 µg/mL; MIC ([7]; ATCC19434, read-out: MIC E. faecium ATCC 19434): 0.25 µg/mL; MIC ([8]; ATCC25923, read-out: MIC S. aureus ATCC 25923): ≤ 0.004 µg/mL; MIC ([9]; ATCC25922, read-out: MIC E. coli ATCC 25922): 0.064 µg/mL; MIC [10]: 0.125 µg/mL; MIC ([11]; ATCC19606, read-out: MIC A. baumannii B. ATCC 19606): 0.064 µg/mL; MIC ([12]; ATCC49247, read-out: MIC H. influenzae ATCC 49247): ≤ 0.004 µg/mL
